What was measured:
Details in all cases: Compound concentration 10 µM
[1] = target: T1, Alpha-2B adrenergic receptor (Homo sapiens) (UniProt P18089)
T1 sequence (whole entry): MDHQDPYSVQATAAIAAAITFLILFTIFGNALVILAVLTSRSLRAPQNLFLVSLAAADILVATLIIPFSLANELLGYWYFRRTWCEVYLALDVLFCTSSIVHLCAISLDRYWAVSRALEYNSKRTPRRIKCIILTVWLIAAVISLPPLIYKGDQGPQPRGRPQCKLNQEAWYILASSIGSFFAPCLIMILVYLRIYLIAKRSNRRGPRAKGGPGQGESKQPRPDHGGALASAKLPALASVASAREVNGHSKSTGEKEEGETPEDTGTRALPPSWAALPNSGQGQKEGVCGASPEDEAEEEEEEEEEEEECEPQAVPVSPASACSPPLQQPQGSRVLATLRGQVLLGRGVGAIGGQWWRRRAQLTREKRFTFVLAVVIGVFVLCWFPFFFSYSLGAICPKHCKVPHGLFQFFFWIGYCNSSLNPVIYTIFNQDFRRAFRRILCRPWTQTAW
Description: PDSP Primary Binding target: ADRA2B - Compounds are tested at 10 uM concentration, plate are incubated at room temperature in the dark for 90 minutes. Reaction are stopped by vacuum filtration onto 0.3% polyethyleneimine soaked filter mats using Filtermate harvester. Scintilation cocktail is then melted onto microwave-dried filters on a hot plate and the radio activity is counted in Microbia counter.

[2] = target: Beta-2 adrenergic receptor (Homo sapiens) (UniProt P07550)
Description: PDSP Primary Binding target: ADRB2 - Compounds are tested at 10 uM concentration, plate are incubated at room temperature in the dark for 90 minutes. Reaction are stopped by vacuum filtration onto 0.3% polyethyleneimine soaked filter mats using Filtermate harvester. Scintilation cocktail is then melted onto microwave-dried filters on a hot plate and the radio activity is counted in Microbia counter.

[3] = target: T2, Muscarinic acetylcholine receptor M1 (Homo sapiens) (UniProt P11229)
T2 sequence (whole entry): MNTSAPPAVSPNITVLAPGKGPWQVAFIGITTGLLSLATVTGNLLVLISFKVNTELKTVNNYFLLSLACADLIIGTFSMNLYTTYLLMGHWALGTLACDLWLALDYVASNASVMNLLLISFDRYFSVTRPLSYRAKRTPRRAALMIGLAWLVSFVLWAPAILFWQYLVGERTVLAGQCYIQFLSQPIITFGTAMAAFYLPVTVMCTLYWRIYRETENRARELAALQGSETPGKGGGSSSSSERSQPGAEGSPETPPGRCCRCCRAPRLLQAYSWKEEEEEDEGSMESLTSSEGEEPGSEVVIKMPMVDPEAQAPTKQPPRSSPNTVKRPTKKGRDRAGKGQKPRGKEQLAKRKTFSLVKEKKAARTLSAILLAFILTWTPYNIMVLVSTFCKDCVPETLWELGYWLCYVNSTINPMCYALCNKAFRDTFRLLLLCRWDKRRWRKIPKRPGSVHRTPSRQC
Description: PDSP Primary Binding target: CHRM1 - Compounds are tested at 10 uM concentration, plate are incubated at room temperature in the dark for 90 minutes. Reaction are stopped by vacuum filtration onto 0.3% polyethyleneimine soaked filter mats using Filtermate harvester. Scintilation cocktail is then melted onto microwave-dried filters on a hot plate and the radio activity is counted in Microbia counter.

[4] = target: T3, Muscarinic acetylcholine receptor M4 (Homo sapiens) (UniProt P08173)
T3 sequence (whole entry): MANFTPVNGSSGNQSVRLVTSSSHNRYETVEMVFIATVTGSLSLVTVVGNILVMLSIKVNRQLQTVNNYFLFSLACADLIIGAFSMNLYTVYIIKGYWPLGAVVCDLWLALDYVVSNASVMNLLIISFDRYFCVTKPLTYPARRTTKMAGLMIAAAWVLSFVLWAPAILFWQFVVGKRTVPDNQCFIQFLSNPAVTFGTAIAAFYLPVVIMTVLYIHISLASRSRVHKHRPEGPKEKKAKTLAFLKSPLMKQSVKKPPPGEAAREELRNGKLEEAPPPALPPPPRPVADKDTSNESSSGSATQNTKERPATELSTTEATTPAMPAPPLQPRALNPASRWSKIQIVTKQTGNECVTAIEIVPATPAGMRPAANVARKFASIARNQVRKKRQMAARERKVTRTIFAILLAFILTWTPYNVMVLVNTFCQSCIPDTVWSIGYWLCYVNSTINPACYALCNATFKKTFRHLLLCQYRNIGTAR
Description: PDSP Primary Binding target: CHRM4 - Compounds are tested at 10 uM concentration, plate are incubated at room temperature in the dark for 90 minutes. Reaction are stopped by vacuum filtration onto 0.3% polyethyleneimine soaked filter mats using Filtermate harvester. Scintilation cocktail is then melted onto microwave-dried filters on a hot plate and the radio activity is counted in Microbia counter.

[5] = target: D(1B) dopamine receptor (Homo sapiens) (UniProt P21918)
Description: PDSP Primary Binding target: DRD5 - Compounds are tested at 10 uM concentration, plate are incubated at room temperature in the dark for 90 minutes. Reaction are stopped by vacuum filtration onto 0.3% polyethyleneimine soaked filter mats using Filtermate harvester. Scintilation cocktail is then melted onto microwave-dried filters on a hot plate and the radio activity is counted in Microbia counter.

[6] = target: Histamine H3 receptor (Homo sapiens) (UniProt Q9Y5N1)
Description: PDSP Primary Binding target: HRH3 - Compounds are tested at 10 uM concentration, plate are incubated at room temperature in the dark for 90 minutes. Reaction are stopped by vacuum filtration onto 0.3% polyethyleneimine soaked filter mats using Filtermate harvester. Scintilation cocktail is then melted onto microwave-dried filters on a hot plate and the radio activity is counted in Microbia counter.

[7] = target: 5-hydroxytryptamine receptor 1E (Homo sapiens) (UniProt P28566)
Description: PDSP Primary Binding target: HTR1E - Compounds are tested at 10 uM concentration, plate are incubated at room temperature in the dark for 90 minutes. Reaction are stopped by vacuum filtration onto 0.3% polyethyleneimine soaked filter mats using Filtermate harvester. Scintilation cocktail is then melted onto microwave-dried filters on a hot plate and the radio activity is counted in Microbia counter.

[8] = target: 5-hydroxytryptamine receptor 2A (Homo sapiens) (UniProt P28223)
Description: PDSP Primary Binding target: HTR2A - Compounds are tested at 10 uM concentration, plate are incubated at room temperature in the dark for 90 minutes. Reaction are stopped by vacuum filtration onto 0.3% polyethyleneimine soaked filter mats using Filtermate harvester. Scintilation cocktail is then melted onto microwave-dried filters on a hot plate and the radio activity is counted in Microbia counter.

[9] = target: Delta-type opioid receptor (Homo sapiens) (UniProt P41143)
Description: PDSP Primary Binding target: OPRD1 - Compounds are tested at 10 uM concentration, plate are incubated at room temperature in the dark for 90 minutes. Reaction are stopped by vacuum filtration onto 0.3% polyethyleneimine soaked filter mats using Filtermate harvester. Scintilation cocktail is then melted onto microwave-dried filters on a hot plate and the radio activity is counted in Microbia counter.

[10] = target: Mu-type opioid receptor (Homo sapiens) (UniProt P35372)
Description: PDSP Primary Binding target: OPRM1 - Compounds are tested at 10 uM concentration, plate are incubated at room temperature in the dark for 90 minutes. Reaction are stopped by vacuum filtration onto 0.3% polyethyleneimine soaked filter mats using Filtermate harvester. Scintilation cocktail is then melted onto microwave-dried filters on a hot plate and the radio activity is counted in Microbia counter.

[11] = target: Sigma intracellular receptor 2 (Homo sapiens) (UniProt Q5BJF2)
Description: PDSP Primary Binding target: TMEM97 - Compounds are tested at 10 uM concentration, plate are incubated at room temperature in the dark for 90 minutes. Reaction are stopped by vacuum filtration onto 0.3% polyethyleneimine soaked filter mats using Filtermate harvester. Scintilation cocktail is then melted onto microwave-dried filters on a hot plate and the radio activity is counted in Microbia counter.

[12] = target: T4, Alpha-1A adrenergic receptor (Homo sapiens) (UniProt P35348)
T4 sequence (whole entry): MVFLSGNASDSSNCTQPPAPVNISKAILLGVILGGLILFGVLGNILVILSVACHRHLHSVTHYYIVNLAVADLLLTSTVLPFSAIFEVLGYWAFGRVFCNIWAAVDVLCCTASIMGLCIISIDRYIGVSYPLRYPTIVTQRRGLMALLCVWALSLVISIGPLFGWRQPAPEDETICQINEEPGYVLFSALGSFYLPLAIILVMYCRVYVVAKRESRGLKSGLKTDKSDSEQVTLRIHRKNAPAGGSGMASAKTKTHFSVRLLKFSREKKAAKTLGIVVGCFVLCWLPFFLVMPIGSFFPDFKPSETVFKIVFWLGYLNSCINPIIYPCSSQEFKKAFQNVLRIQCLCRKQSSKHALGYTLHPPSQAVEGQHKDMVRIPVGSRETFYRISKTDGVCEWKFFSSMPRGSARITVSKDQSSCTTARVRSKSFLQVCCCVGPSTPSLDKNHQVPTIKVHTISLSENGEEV
Description: PDSP Primary Binding target: ADRA1A - Compounds are tested at 10 uM concentration, plate are incubated at room temperature in the dark for 90 minutes. Reaction are stopped by vacuum filtration onto 0.3% polyethyleneimine soaked filter mats using Filtermate harvester. Scintilation cocktail is then melted onto microwave-dried filters on a hot plate and the radio activity is counted in Microbia counter.

[13] = target: T5, Alpha-1D adrenergic receptor (Homo sapiens) (UniProt P25100)
T5 sequence (whole entry): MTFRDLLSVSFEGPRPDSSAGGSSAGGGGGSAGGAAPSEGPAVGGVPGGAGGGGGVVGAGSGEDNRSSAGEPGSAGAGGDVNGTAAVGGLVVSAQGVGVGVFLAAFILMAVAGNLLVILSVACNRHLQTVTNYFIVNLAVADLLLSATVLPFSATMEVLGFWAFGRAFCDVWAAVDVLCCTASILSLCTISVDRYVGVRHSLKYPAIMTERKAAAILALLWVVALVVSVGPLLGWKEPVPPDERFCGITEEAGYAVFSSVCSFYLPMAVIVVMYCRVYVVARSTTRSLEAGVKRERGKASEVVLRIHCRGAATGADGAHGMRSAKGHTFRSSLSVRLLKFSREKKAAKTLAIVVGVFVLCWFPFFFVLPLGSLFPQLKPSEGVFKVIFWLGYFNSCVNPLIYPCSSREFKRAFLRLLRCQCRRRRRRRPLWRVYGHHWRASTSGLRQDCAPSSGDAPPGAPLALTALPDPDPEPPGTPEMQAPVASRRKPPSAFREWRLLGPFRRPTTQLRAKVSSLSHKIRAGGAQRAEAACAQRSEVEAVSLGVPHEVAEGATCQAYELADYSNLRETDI
Description: PDSP Primary Binding target: ADRA1D - Compounds are tested at 10 uM concentration, plate are incubated at room temperature in the dark for 90 minutes. Reaction are stopped by vacuum filtration onto 0.3% polyethyleneimine soaked filter mats using Filtermate harvester. Scintilation cocktail is then melted onto microwave-dried filters on a hot plate and the radio activity is counted in Microbia counter.

Sequence of Sigma intracellular receptor 2 (Homo sapiens) (Q5BJF2 whole entry): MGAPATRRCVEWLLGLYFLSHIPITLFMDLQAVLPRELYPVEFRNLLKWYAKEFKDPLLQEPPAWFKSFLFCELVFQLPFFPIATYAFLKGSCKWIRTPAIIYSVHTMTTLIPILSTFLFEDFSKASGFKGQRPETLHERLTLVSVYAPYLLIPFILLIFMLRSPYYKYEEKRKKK
Sequence of Histamine H3 receptor (Homo sapiens) (Q9Y5N1 whole entry): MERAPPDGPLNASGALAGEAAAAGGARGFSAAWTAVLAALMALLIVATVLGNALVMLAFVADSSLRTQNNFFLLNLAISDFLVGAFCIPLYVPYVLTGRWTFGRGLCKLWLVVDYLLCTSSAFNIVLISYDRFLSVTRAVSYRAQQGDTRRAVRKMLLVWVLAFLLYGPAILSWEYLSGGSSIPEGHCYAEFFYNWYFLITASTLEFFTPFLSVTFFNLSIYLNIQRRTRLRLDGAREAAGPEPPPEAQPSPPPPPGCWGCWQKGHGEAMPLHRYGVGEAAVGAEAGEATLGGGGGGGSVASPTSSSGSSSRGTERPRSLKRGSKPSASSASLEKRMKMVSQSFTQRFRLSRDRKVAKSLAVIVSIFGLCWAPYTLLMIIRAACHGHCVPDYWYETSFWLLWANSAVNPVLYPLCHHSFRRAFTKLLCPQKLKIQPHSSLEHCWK
Sequence of Delta-type opioid receptor (Homo sapiens) (P41143 whole entry): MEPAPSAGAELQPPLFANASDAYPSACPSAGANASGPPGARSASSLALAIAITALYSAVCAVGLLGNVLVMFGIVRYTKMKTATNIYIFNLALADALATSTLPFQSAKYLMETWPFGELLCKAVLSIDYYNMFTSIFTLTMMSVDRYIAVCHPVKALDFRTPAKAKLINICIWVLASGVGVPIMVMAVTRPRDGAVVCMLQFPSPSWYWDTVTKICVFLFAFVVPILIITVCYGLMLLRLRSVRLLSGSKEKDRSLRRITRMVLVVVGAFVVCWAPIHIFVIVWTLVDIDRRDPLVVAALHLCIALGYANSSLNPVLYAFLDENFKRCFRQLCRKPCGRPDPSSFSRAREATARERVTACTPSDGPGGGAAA
Sequence of Beta-2 adrenergic receptor (Homo sapiens) (P07550 whole entry, looked up): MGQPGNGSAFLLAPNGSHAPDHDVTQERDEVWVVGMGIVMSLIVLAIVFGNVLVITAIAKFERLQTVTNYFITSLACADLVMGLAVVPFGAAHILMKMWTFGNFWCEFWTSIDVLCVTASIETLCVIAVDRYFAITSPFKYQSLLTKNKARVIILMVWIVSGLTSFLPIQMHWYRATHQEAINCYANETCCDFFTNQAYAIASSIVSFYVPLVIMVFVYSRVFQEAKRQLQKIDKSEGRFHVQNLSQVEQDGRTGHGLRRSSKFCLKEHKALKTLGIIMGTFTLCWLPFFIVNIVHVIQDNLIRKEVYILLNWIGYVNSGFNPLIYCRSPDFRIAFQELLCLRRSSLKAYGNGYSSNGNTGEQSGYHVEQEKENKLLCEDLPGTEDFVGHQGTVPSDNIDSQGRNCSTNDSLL
Sequence of 5-hydroxytryptamine receptor 1E (Homo sapiens) (P28566 whole entry): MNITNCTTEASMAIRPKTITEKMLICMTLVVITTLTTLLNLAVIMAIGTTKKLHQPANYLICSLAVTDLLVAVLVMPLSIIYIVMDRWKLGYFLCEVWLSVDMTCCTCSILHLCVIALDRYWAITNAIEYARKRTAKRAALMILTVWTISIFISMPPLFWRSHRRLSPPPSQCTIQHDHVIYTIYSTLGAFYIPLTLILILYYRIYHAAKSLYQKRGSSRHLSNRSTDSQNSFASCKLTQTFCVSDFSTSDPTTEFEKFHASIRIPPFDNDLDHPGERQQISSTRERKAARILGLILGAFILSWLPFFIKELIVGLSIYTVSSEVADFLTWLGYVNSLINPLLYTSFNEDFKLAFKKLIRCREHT
Sequence of Mu-type opioid receptor (Homo sapiens) (P35372 whole entry): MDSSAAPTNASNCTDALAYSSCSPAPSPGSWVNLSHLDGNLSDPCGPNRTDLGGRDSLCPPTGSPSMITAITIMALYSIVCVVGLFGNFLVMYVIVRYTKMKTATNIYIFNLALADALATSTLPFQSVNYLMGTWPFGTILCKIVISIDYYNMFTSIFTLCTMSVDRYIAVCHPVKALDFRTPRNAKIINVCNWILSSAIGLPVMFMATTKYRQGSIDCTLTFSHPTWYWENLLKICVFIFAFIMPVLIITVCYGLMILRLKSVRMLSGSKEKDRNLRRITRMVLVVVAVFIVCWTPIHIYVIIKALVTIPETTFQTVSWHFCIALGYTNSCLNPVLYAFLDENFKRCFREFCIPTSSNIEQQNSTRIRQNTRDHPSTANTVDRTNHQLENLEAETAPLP
Sequence of D(1B) dopamine receptor (Homo sapiens) (P21918 whole entry): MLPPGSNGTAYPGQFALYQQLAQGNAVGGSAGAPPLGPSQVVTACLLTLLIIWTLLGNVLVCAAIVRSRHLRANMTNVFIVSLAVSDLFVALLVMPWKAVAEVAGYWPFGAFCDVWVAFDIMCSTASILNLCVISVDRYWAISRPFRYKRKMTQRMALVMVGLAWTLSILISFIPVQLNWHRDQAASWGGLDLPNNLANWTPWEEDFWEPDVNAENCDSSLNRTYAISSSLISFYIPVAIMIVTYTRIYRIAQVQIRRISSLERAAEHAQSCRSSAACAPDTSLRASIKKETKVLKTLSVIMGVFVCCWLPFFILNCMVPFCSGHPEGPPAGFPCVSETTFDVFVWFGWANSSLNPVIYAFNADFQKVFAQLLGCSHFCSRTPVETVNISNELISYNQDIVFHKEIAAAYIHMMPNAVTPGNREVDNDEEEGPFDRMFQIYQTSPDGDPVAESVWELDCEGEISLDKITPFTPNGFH
Sequence of 5-hydroxytryptamine receptor 2A (Homo sapiens) (P28223 whole entry): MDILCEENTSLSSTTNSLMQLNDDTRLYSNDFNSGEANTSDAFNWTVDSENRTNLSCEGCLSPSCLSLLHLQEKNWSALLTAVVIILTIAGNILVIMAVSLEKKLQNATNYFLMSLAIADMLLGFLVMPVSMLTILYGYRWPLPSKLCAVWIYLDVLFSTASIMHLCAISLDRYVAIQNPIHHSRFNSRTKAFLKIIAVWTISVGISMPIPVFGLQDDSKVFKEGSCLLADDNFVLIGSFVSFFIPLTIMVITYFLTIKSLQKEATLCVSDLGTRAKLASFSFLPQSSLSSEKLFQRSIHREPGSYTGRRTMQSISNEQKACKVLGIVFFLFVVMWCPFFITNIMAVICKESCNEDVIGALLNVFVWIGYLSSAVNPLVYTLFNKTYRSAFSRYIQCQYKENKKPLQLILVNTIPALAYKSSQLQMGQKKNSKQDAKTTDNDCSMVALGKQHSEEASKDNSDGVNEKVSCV

| Structure (SMILES) | inhibition [1] [%] | inhibition [2] [%] | inhibition [3] [%] | inhibition [4] [%] | inhibition [5] [%] | inhibition [6] [%] | inhibition [7] [%] | inhibition [8] [%] | inhibition [9] [%] | inhibition [10] [%] | inhibition [11] [%] | inhibition [12] [%] | inhibition [13] [%] |
| --- | --- | --- | --- | --- | --- | --- | --- | --- | --- | --- | --- | --- | --- |
| CC1CCN(CC[C@H]2CCCN2S(=O)(=O)c2cccc(O)c2)CC1 | 51 | -9.8 | -8.14 | 8.85 | 85.1 | -4.13 | 7.28 | 28.8 | 7.91 | 62.9 | 98.2 |  |  |
| Cc1nc(C#Cc2ccnc(Cl)c2)c(C)n1-c1ccc(OC(F)(F)F)cc1 | 67.9 |  | 26.6 | 15.4 | 6 | 0.66 | 20.5 | 16.1 | -5.91 | 13.4 | 75.5 | 14.3 | 20.7 |
| CCC(=O)NCC[C@@H]1CCc2ccc3c(c21)CCO3 | 22 | 12.6 | -3.08 | -2.55 | -3.26 |  | -5.33 | 6.79 | -5.97 | -7.21 | 47.4 | -9.5 | 10.9 |
| Cc1nn(C)c(C)c1-c1cccc2c1CC[C@H](N(C)C)C2 | 92.2 | 20.2 | 29.3 | 5.06 | 26 |  | 47.5 |  | -4.68 | 14.6 | 79.1 | 15.3 | 2.35 |
| CN(C)S(=O)(=O)c1ccc(NC(=S)N2CCC(C(O)(c3ccccc3)c3ccccc3)CC2)cc1 | 14.4 | 71.8 | 8.52 | -6.86 | 5.17 |  | 7.01 | 11 | 10.2 | 2.22 | 95.2 | -0.67 |  |
| O=C(O)COc1cccc(CN(Cc2ccc(-n3cccn3)cc2)S(=O)(=O)c2cccnc2)c1 | -5.85 | -8.36 | 3.45 | -2.13 | 2.14 | 6.23 | 14.9 | 15.6 | 22.4 | -4.37 | 4.27 | -1.12 |  |
| NC(=O)[C@@H]1CCCN1C(=O)[C@H](Cc1c[nH]cn1)NC(=O)[C@@H]1CCC(=O)N1 | 14 |  | -3.59 | -2.83 | 0.19 | 10.9 | -5.34 | 23.5 | 1.37 | 45.1 | 35 | -7.07 | -8.73 |
| CC1=C2C[C@H]3[C@@H](CC=C4C[C@@H](O)CC[C@@]43C)[C@@H]2CC[C@]12O[C@@H]1C[C@H](C)CN[C@H]1[C@H]2C |  | 5.22 | 22.8 | -3.11 | 1.59 | 32.2 | 6.19 | 4.16 | -0.87 | 10.4 | 91.8 |  | -8.81 |
| COc1cccc(-c2c(C)n(Cc3c(F)cccc3C(F)(F)F)c(=O)n(C[C@H](NCCCC(=O)O)c3ccccc3)c2=O)c1F | -2.07 |  | 26.2 | 4.32 | 0.96 |  | 11.7 | -2.02 | 7.27 | 11.9 |  | 7.84 | -7.43 |
| C[C@]1(C(=O)N(CCCC(=O)O)Cc2cccc(Cl)c2)CCN1C(=O)c1csc2ccccc12 | 13.3 |  | 5.11 | 27.1 | -8.24 | -8.42 | -8.85 | 5.34 | -1.78 |  | -7.28 | -4.07 | 3.17 |
| CCc1cc2c(cc1CC)CC(NC[C@H](O)c1ccc(O)c3[nH]c(=O)ccc13)C2 | 38.5 | 94.3 | -6.02 | 17.9 | 38.5 |  | -6.64 | 61.1 | 1.1 | 21 | 96.5 | 84.1 | 75.3 |
| O=C(O)C1CN(Cc2ccc(OCc3ccc(Cl)c(Cl)c3)cc2)C1 | 35.4 |  | 2.35 | 29.6 | -5.98 | -4.42 | -4 | 55.1 |  | 1.29 |  | -0.54 | -5.42 |
| Cc1cc([C@@H](C)Nc2cccc(-c3cc(C)c(C(=O)N[C@@H](C)C(=O)O)c(C)c3)c2)ccc1Cl | 24.6 |  | 21.2 | 7.41 | 5.13 | 10 | 5.92 | 5.15 | 35.9 | 16.5 |  | 11.3 |  |
| CCC[C@H](Oc1cc(C)c(-n2cc(C(F)(F)F)cn2)c(C)c1)c1ccc(C(=O)NCCC(=O)O)cc1 | -4.35 |  | 28 | 3.44 | 11.7 | 11.1 | 44 | 4.78 | 27 | 11 | 2.23 | 8.94 |  |

Reference: ChEMBL document CHEMBL5442219
